Laboratory results published in patent publication US11767313B2, “Compounds as nuclear transport modulators and uses thereof” (XWPHARMA LTD., priority 2018, dated 2023).
Where two headings read alike, the source gives them in different places.

Experiments:
MV411 = test: CellTiter-Glo cell proliferation assay, MV411; type: cell-based; conditions: Homo sapiens, MV4-11, 72 hours, Table 1, read-out: Growth inhibition (IC50)
Protocol: (§1) CellTiter-Glo® Luminescent Cell Viability assay (with Promega CellTiter 96® Luminescent CellTiter-Glo® kit) was used to study the proliferation inhibition by test compounds. Compounds were resuspended in DMSO to make a 25 mM stock suspension. Cells of cancer cell lines or normal tissues were seeded in 96-well plates at 1,500 to 5,000 cells/well overnight. Compounds were 2- or 3-fold diluted serially to obtain 10 concentrations. Then, the drugs were added to the cell wells by Bravo (Agilent) and incubated for 72 hours. The cells were lysed by adding CellTiter-Glo® Reagent (per manufacturer's instructions) and subsequently, the luminescence was read using EnVision® (PerkinElmer).
(§2) The percent of growth was calculated as follows. DMSO-treated cells were employed as vehicle control (High control, HC) and culture medium alone was employed as background (Low control, EC). % growth=100×(Lum sample−Lum EC)/(Lum HC−Lum EC). The ICso was calculated by concentration-response curve fitting using Graphpad Prism.
(§3) Hematological cancer cell lines tested included OCI-AML3, MV-4-11, KG-1, Kasumi-1, K562, THP-1; solid cancer cell lines tested included U87MG, U251, T98G, LN229, A172, H460, H2009, A549; normal cell lines tested included HCN2 and 3T3-L1. […] However, they were not toxic to in vitro cultured normal cells.

Kasumi-1 = test: CellTiter-Glo cell proliferation assay, Kasumi-1; type: cell-based; conditions: Homo sapiens, 72 hours, Table 1, read-out: Growth inhibition (IC50)
Protocol: as §1, §2, §3

[1] = Pharmacokinetic profile summary; type: in vivo, mice or rats
Protocol: Blood was collected from mice (n=3, or 5) to contribute to the total of 10 time points (pre-dose, 5 min, 15 min, 30 min, 1 hour, 2 hours, 4 hours, 8 hours, 12 hours and 24 hours). At the designated time points, animals were anaesthetized under isoflurane, and approximately 110 μL of blood per time point was collected via retro-orbital puncture into pre-cooled K2EDTA tubes. Blood samples were put on wet ice and centrifuged (2000 g, 5 min at 4° C.) to obtain plasma within 30 minutes of sample collection. All samples were stored frozen at approximately −80° C. until analysis. Prior to analysis, samples were mixed with internal standard in acetonitrile, vortexed, centrifuged, and supernatant was injected for analysis. Concentration of compounds in plasma was determined using LC-MS-MS instrumentation (API 4000, Triple Quadrupole LC/MS/MS Mass Spectrometer). AUC values were calculated using Phoenix Win Nonlin 6.3 software package, PO-Noncompartmental model 200 (extravascular input).
Following collection, brain tissue was rinsed with cold saline, dried on filter paper, weighed and snap-frozen by placing on dry ice. All samples were stored frozen at approximately −80° C. until analysis. At the time of analysis, brain tissue was homogenized (homogenizing solution PBS, pH 7.4), mixed with internal standard in acetonitrile, vortexed, centrifuged, and supernatant was injected for analysis. Concentration of compounds in plasma was determined using LC-MS-MS instrumentation (API 4000, Triple Quadrupole LC/MS/MS Mass Spectrometer). Plasma samples were treated with the identical method (except homogenization step) and the concentration of compound in each matrix was calculated based on generated standard curves.
The pharmacokinetic profile of test compounds in mice or rats was determined from several test compounds was determined using the methods described in Example 22.

KG1 = test: CellTiter-Glo cell proliferation assay, KG1; type: cell-based; conditions: Homo sapiens, KG-1, 72 hours, Table 1, read-out: Growth inhibition (IC50)
Protocol: as §1, §2, §3

H460 = test: CellTiter-Glo cell proliferation assay, H460; type: cell-based; conditions: Homo sapiens, NCI-H460, 72 hours, Table 1, read-out: Growth inhibition (IC50)
Protocol: as §1, §2, §3

K562 = test: CellTiter-Glo cell proliferation assay, K562; type: cell-based; conditions: Homo sapiens, 72 hours, Table 1, read-out: Growth inhibition (IC50)
Protocol: as §1, §2, §3

U87MG = test: CellTiter-Glo cell proliferation assay, U87MG; type: cell-based, human; conditions: Homo sapiens, U-87 MG, 72 h, U87MG; 72 hours; Table 1; read-out: Growth inhibition (IC50)
Protocol: as §1, §2, §3

XPO1 = XPO1 (Homo sapiens, UniProt O14980); test: REV-GFP translocation assay in U2OS cells; type: cell-based; set-up: endogenous in cells; host or cells: U2OS cells stably expressing REV-GFP (clones from HD Biosciences)
Protocol: LTD in China, and cells were cultured with growth medium. […] The highest Leptomycin B (LMB) concentration was set to 50 nM and serially diluted as the positive control, while the highest concentrations of other compounds were set to 10 μM. The cells treated with various drugs or DMSO, were incubated at 37° C. and 5% CO2 for 1 h. Then, cells were fixed with 4% formaldehyde for 15 min at room temperature. The cells were washed and stained with 100 μL Hoechst 33342 working solution for 10 min at room temperature in dark, after which the cell fluorescence was imaged with the High-Content Imaging System, ImageXpress® (Molecular Devices) using the 20× objective. The filters were set for Hoechst (350/461 nm) and GFP/FITC (488/509 nm) (wavelength for excitation and emission maxima). The % effect of REV nuclear translocation was calculated with the following formula: % effect=([…]- signals from testing compounds; ILMB-signals of 50 nM LMB group; ICTRL-signals of vehicle control group.

THP-1 = test: CellTiter-Glo cell proliferation assay, THP-1; type: cell-based; conditions: Homo sapiens, 72 hours, Table 1, read-out: Growth inhibition (IC50)
Protocol: as §1, §2, §3

H2009 = test: CellTiter-Glo cell proliferation assay, H2009; type: cell-based; conditions: Homo sapiens, NCI-H2009, 72 hours, Table 1, read-out: Growth inhibition (IC50)
Protocol: as §1, §2, §3

A549 = test: CellTiter-Glo cell proliferation assay, A549; type: cell-based; conditions: Homo sapiens, 72 hours, Table 1, read-out: Growth inhibition (IC50)
Protocol: as §1, §2, §3

OCI-AML3 = test: CellTiter-Glo cell proliferation assay, OCI-AML3; type: cell-based; conditions: Homo sapiens, OCI-AML-3, 72 hours, Table 1, read-out: Growth inhibition (IC50)
Protocol: as §1, §2, §3

Chain of XPO1 (O14980 whole entry): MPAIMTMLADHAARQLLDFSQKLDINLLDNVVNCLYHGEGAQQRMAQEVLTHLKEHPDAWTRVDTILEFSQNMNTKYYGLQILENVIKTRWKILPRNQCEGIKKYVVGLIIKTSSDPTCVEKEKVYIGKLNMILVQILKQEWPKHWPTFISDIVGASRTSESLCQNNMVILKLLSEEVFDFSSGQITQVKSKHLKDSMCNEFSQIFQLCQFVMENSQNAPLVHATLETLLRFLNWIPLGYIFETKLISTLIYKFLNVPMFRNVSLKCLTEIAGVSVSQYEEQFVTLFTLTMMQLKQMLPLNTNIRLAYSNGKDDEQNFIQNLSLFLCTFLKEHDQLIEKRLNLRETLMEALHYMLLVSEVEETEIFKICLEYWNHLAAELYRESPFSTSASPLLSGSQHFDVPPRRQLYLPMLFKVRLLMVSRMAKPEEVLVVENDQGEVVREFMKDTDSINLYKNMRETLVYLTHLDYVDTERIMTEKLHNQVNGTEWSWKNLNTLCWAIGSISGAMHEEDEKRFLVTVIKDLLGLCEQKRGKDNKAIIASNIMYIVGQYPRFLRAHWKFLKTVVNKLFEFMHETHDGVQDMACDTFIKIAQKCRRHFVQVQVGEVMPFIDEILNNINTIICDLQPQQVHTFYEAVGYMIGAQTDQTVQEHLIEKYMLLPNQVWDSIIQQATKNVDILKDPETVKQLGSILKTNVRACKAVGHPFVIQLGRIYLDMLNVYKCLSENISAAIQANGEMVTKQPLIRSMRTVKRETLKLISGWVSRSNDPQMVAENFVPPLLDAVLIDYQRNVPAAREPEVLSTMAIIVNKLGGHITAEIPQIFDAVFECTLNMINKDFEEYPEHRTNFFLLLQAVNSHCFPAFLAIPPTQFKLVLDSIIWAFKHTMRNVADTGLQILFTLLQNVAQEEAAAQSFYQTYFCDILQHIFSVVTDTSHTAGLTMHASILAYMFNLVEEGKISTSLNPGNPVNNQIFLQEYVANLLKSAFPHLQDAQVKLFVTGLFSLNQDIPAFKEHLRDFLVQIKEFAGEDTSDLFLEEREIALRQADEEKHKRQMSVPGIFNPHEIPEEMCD

IC50 (MV411): 110 nM
Kp ([1]; brain/plasma, 5 mpk/AUC Ratio, read-out: B/P ratio): 0.29
bioavailability ([1]; plasma, oral, mice or rats): 27%
AUC ([1]; plasma, po, 10 mg/kg, 10 mpk): 1060 ng·h/mL
half-life ([1]; plasma, mice or rats): 2.9 h
Cmax ([1]; po, 5 mg/kg, 5 mpk, first number of Plasma/brain pair, read-out: Cmax/(ng/mL) Plasma): 276 ng/mL
Cmax ([1]; po, 5 mg/kg, 5 mpk, second number of Plasma/brain pair, read-out: Cmax/(ng/mL) brain): 68.5 ng/mL
Cmax ([1]; po, 10 mg/kg, plasma, 10 mpk, read-out: Cmax (ng/ml) plasma/10 mpk): 312 ng/mL
IC50 (H460): 306 nM
IC50 (K562): 1750 nM
IC50 (U87MG): 194 nM
EC50 (XPO1; REV-EGFP U2OS cells, 1 h, Table 2, read-out: Rev-GFP/EC50): 0.0148 µM
IC50 (XPO1; Table 10, first (or only) value of the cell): 14.8 nM
EC50 (XPO1; Table 13, read-out: Rev-GFP assay/μM): 0.015 µM
IC50 (THP-1): 838 nM
IC50 (H2009): 453 nM
IC50 (A549): 1860 nM
IC50 (OCI-AML3): 341 nM
SMILES: NC(=O)/C(=C/n1cnc(-c2cc(C(F)(F)F)cc(S(F)(F)(F)(F)F)c2)n1)c1cncnc1 [Compound IV, (E)-3-(3-(3-(Pentafluorosulfaneyl)-5-(trifluoromethyl)phenyl)-1H-1,2,4-triazol-1-yl)-2-(pyrimidin-5-yl)acrylamide]
IC50 (Kasumi-1): 124 nM
IC50 (KG1): 698 nM
